Measured values published in patent US20110269811A1, “INHIBITORS OF SEMICARBAZIDE-SENSITIVE AMINE OXIDASE (SSAO) AND VAP-1 MEDIATED ADHESION USEFUL FOR TREATMENT AND PREVENTION OF DISEASES” (priority 2006, published 2011).

Key:
[1] = system: antibody-mediated collagen-induced arthritis; assay: Anti-collagen antibody-induced arthritis in mice; assay type: in vivo; details: 30 mg/kg, i.p., once daily, days 1-10; FIG. 4
Excerpt: Collagen-induced arthritis (CIA) in mice is widely used as an experimental model for rheumatoid arthritis (RA) in humans. CIA is mediated by autoantibodies to a particular region of type II collagen and complement. The murine CIA model used in this study is called antibody-mediated CIA, and can be induced by i.v. injection of a combination of different anti-type II collagen monoclonal antibodies (Terato K., et al. (1995). Autoimmunity. 22:137). Several compounds have been used to successfully block inflammation in this model, including anti-α1β1 and […] integrins monoclonal antibodies (de Fougerolles A. R. (2000) J. Clin. Invest. 105: 721).
In this example, arthrogen-collagen-induced arthritis antibody kits were purchased from Chemicon International (Temecula, Calif.) and arthritis was induced using the manufacturer's protocol. Mice were injected i.v. with a cocktail of 4 anti-collagen Type II monoclonal antibodies (1.5 mg each) on day 0, followed by i.p. injection of 25 μg lipopolysaccharide (LPS) on day 2. […] Severity of arthritis in each limb was scored for 3-4 weeks as follows: 0=normal; 1=mild redness, slight swelling of ankle or wrist; 2=moderate redness and swelling of ankle or wrist; 3=severe redness and swelling of some digits, ankle and paw; 4=maximally inflamed limb, with a maximum score of 16 per animal. […]

NK3 (h) = molecular target: T1, NK3 (h) (Homo sapiens, UniProt P29371); assay: Receptor binding screen, [^3H]SR 142801; details: 10 uM Concentration of Compound I-1-Z; read-out: Mean Value, percent inhibition of control specific binding: NK3 (h)
T1 construct: expressed in transfected cells; host or cells: CHO cells
T1 sequence (P29371 whole entry): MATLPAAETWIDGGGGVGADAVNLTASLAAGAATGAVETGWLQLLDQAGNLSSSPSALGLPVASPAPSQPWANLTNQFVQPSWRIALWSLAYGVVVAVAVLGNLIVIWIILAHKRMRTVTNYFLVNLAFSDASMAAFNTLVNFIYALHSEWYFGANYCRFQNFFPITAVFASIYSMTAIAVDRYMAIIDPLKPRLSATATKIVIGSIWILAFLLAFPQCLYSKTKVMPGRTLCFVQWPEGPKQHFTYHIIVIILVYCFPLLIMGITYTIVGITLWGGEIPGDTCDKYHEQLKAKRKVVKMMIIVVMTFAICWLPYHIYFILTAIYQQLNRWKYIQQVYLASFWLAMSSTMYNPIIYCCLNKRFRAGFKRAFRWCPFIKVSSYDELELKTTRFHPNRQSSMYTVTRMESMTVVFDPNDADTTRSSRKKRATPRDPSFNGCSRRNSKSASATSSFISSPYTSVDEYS

β1 (h) = molecular target: T2, β1 (h) (Homo sapiens, UniProt P08588); assay: Receptor binding screen, [^3H](−)CGP 12177; details: 10 uM Concentration of Compound I-1-Z; read-out: Mean Value, percent inhibition of control specific binding: β1 (h)
T2 construct: expressed in transfected cells; host or cells: HEK-293 cells
T2 sequence (P08588 whole entry): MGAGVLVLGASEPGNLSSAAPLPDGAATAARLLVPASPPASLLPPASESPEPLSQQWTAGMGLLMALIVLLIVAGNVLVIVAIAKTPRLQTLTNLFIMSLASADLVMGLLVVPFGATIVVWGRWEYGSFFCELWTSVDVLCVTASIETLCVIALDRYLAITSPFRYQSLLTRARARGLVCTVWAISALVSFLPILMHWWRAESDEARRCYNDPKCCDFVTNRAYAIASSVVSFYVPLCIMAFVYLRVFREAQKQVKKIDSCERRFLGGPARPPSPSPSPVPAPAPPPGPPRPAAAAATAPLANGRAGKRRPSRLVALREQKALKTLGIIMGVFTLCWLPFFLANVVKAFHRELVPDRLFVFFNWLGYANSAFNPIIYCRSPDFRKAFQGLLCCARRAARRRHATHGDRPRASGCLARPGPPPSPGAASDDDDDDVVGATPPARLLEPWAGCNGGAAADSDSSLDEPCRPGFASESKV

CCR1 (h) = molecular target: T3, CCR1 (h) (Homo sapiens, UniProt P32246); assay: Receptor binding screen, [^125I]MIP-1α; details: 10 uM Concentration of Compound I-1-Z; read-out: Mean Value, percent inhibition of control specific binding: CCR1 (h)
T3 construct: expressed in transfected cells; host or cells: HEK-293 cells
T3 sequence (P32246 whole entry): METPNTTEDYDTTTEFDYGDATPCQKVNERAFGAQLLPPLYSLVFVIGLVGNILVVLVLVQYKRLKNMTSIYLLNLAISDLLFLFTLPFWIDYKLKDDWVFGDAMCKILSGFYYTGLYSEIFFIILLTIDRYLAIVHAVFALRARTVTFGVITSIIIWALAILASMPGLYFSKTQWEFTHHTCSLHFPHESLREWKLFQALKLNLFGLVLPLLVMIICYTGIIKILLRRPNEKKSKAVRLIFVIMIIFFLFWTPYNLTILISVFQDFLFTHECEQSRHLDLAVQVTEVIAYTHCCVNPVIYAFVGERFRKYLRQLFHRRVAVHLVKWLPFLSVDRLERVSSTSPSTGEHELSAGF

5-HT1B = molecular target: T4, 5-HT1B (Rattus norvegicus, UniProt P28564); assay: Receptor binding screen, [^125I]CYP; details: probe [125I]CYP (radioligand), 10 uM Concentration of Compound I-1-Z, read-out: Mean Value, percent inhibition of control specific binding: 5-HT1B
T4 construct: rat cerebral cortex; from tissue; host or cells: rat cerebral cortex
T4 sequence (P28564 whole entry): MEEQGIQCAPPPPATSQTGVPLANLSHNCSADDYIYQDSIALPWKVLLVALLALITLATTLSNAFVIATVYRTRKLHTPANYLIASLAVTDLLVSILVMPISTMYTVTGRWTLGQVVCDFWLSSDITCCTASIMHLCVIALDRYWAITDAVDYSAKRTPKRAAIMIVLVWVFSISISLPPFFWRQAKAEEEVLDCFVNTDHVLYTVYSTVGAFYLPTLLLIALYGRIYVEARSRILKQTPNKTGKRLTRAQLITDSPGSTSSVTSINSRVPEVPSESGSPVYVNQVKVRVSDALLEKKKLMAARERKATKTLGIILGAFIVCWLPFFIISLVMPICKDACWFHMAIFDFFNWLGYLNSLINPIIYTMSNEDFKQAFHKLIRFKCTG

[2] = molecular target: T5, human diamine oxidase (DAO) (Homo sapiens, UniProt P19801); assay: Inhibition of diamine oxidase, AMPLEX Red assay, putrescine substrate; assay type: biochemical; details: recombinant DAO expressed in CHO cells
T5 construct: made in house; host or cells: CHO cells (Flp-In, pcDNA5/FRT); serum-free conditioned medium used directly
T5 sequence (P19801 20-751): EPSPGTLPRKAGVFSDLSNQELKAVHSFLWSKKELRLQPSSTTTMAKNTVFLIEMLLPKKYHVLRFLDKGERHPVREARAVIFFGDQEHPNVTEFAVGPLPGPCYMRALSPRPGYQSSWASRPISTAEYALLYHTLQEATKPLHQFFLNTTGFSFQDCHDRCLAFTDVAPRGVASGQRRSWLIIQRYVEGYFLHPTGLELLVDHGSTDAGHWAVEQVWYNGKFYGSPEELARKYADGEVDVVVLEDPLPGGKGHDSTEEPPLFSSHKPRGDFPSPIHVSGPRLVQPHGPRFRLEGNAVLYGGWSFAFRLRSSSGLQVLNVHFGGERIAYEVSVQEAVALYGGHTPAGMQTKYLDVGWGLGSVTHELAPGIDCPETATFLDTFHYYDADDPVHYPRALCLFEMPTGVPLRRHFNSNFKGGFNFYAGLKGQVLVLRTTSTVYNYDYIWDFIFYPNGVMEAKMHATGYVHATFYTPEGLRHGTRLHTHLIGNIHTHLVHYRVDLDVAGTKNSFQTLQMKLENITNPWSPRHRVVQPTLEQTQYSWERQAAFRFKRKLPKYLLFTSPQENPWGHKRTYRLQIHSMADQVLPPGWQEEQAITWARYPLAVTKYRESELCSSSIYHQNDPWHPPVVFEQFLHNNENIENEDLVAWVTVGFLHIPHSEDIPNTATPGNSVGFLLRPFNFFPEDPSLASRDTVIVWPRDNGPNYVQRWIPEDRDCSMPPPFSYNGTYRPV
Experimental: Compounds of the invention can be tested for their inhibitory activity against diamine oxidase (DAO). Recombinant DAO was expressed in CHO cells using standard molecular biology methods as described herein. […] The serum containing media was removed and the cells were switched to CHO SFM serum free media for 48 hours. […] The media was collected and used directly as a source of diamine oxidase for enzyme analysis.

VIP1 (h) (VPAC1) = molecular target: T6, VIP1 (h) (VPAC1) (Homo sapiens, UniProt P32241); assay: Receptor binding screen, [^125I]VIP; details: 10 uM Concentration of Compound I-1-Z; read-out: Mean Value, percent inhibition of control specific binding: VIP1 (h) (VPAC1)
T6 construct: expressed in transfected cells; host or cells: CHO cells
T6 sequence (P32241 31-457): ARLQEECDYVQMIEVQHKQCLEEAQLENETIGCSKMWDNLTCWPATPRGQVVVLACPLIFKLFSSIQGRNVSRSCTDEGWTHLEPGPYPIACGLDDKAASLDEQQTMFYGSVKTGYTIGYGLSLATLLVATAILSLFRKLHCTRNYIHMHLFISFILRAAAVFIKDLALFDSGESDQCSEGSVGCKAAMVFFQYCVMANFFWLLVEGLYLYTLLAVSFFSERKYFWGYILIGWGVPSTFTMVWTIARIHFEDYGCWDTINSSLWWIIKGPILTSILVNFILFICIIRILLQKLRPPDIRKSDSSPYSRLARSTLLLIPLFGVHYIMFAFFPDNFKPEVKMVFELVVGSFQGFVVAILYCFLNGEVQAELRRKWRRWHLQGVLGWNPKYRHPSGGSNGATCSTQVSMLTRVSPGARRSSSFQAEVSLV

α1 (non-selective) = assay: Receptor binding screen, [^3H]prazosin; design: species or system rat; details: 10 uM Concentration of Compound I-1-Z
Experimental: (§1) For Table 4 below, the specific ligand binding to the receptors is defined as the difference between the total binding and the nonspecific binding determined in the presence of an excess of unlabelled ligand. The results are expressed as a percent inhibition of control specific binding obtained in the presence of Compound I-1-Z. The IC50 values (concentration causing a half-maximal inhibition of control specific binding) and Hill coefficients (nH) were determined by non-linear regression analysis of the competition curves using Hill equation curve fitting. The inhibition constants (Ki) were calculated from the Cheng Prusoff equation (Ki=IC50/(1+(L/KD)), where L=concentration of radioligand in the assay, and KD=affinity of the radioligand for the receptor). In each experiment, the respective reference compound was tested concurrently with Compound I-1-Z in order to assess the assay suitability.

CCKB (h) (CCK2) = molecular target: T7, CCKB (h) (CCK2) (Homo sapiens, UniProt P32239); assay: Receptor binding screen, [^125I]CCK-8; details: 10 uM Concentration of Compound I-1-Z; read-out: Mean Value, percent inhibition of control specific binding: CCKB (h) (CCK2)
T7 construct: expressed in transfected cells; host or cells: CHO cells
T7 sequence (P32239 whole entry): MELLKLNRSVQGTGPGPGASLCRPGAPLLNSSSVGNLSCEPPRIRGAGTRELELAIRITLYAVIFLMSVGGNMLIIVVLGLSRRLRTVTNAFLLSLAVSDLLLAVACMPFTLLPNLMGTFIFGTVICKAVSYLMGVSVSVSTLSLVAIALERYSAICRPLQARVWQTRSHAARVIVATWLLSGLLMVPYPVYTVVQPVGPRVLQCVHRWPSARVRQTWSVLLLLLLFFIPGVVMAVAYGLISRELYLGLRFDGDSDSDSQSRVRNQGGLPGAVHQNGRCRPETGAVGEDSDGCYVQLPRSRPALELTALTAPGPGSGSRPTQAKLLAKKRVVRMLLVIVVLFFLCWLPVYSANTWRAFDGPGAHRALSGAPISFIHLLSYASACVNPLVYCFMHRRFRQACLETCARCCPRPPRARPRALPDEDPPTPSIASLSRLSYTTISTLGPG

[3] = system: Ca^2+ channel (L, verapamil site) (phenylalkylamines); assay: Receptor binding screen, [^3H](−)D 888; design: species or system rat; details: 10 uM Concentration of Compound I-1-Z
M4 (h) = molecular target: T8, M4 (h) (Homo sapiens, UniProt P08173); assay: Receptor binding screen, [^3H]4-DAMP; details: 10 uM Concentration of Compound I-1-Z; read-out: Mean Value, percent inhibition of control specific binding: M4 (h)
T8 construct: expressed in transfected cells; host or cells: CHO cells
T8 sequence (P08173 whole entry): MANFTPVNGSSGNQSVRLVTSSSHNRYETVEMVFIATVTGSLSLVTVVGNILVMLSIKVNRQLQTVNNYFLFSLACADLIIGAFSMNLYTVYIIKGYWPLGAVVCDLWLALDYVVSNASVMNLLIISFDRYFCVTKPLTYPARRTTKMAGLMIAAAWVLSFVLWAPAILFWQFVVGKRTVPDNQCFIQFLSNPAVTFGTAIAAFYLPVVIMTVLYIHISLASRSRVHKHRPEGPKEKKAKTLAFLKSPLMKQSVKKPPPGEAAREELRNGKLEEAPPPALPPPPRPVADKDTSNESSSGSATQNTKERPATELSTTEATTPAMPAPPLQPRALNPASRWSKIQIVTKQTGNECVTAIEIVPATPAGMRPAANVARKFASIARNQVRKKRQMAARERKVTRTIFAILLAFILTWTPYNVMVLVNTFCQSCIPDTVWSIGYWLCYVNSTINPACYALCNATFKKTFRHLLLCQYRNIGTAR

SK^+Ca channel = assay: Receptor binding screen, [^125I]apamin; design: species or system rat; details: 10 uM Concentration of Compound I-1-Z
Experimental: as §1

D4.4 (h) = molecular target: T9, D4.4 (h) (Homo sapiens, UniProt P21917); assay: Receptor binding screen, [^3H]spiperone; details: 10 uM Concentration of Compound I-1-Z; read-out: Mean Value, percent inhibition of control specific binding: D4.4 (h)
T9 construct: expressed in transfected cells; host or cells: CHO cells
T9 sequence (P21917 whole entry): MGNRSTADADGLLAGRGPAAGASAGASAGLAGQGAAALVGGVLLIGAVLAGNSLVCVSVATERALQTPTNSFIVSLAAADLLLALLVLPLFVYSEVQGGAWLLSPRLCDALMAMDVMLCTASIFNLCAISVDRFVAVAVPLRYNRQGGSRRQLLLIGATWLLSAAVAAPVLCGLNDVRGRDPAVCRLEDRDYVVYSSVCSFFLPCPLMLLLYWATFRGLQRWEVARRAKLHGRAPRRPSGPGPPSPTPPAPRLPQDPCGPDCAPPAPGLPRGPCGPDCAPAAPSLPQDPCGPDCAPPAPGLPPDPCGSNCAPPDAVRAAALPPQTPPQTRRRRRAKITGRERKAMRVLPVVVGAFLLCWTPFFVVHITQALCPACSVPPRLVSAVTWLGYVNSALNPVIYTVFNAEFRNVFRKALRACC

BB (non-selective) = assay: Receptor binding screen, [^125I][Tyr^4]bombesin; design: species or system rat; details: 10 uM Concentration of Compound I-1-Z
Experimental: as §1

[4] = molecular target: T10, μ (h) (MOP) (agonist site) (Homo sapiens, UniProt P35372); assay: Receptor binding screen, [^3H]DAMGO; details: 10 uM Concentration of Compound I-1-Z; read-out: Mean Value, percent inhibition of control specific binding: μ (h) (MOP) (agonist site)
T10 construct: expressed in transfected cells; host or cells: HEK-293 cells
T10 sequence (P35372 whole entry): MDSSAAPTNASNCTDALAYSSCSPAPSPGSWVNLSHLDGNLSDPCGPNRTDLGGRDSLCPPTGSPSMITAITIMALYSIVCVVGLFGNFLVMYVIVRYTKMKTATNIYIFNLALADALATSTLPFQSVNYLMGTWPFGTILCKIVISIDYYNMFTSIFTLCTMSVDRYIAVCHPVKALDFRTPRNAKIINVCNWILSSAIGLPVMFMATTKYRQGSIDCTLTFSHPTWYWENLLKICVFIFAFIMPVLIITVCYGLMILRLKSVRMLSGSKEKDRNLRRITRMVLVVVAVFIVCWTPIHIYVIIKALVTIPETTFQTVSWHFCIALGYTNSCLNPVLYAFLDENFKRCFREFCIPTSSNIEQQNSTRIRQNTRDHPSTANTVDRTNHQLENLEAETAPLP
Experimental: as §1

Y2 (h) = molecular target: T11, Y2 (h) (Homo sapiens, UniProt P49146); assay: Receptor binding screen, [^125I]peptide YY, KAN-TS cells; details: 10 uM Concentration of Compound I-1-Z; read-out: Mean Value, percent inhibition of control specific binding: Y2 (h)
T11 construct: KAN-TS cells; endogenous in cells; host or cells: KAN-TS cells
T11 sequence (P49146 whole entry): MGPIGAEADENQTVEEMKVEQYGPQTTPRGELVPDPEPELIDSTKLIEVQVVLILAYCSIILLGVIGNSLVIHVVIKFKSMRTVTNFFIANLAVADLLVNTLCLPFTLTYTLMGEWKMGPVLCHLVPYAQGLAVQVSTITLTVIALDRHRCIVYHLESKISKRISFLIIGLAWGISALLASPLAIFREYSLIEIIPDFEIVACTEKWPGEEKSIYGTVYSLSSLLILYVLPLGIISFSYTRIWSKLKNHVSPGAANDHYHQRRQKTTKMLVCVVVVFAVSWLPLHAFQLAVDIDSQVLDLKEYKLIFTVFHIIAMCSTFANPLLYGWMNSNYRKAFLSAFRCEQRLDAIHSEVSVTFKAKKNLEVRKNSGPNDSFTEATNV

COc1ccc(C/C(=C/F)CN)cc1.Cl [Compound I-1-Z, (Z)-3-Fluoro-2-(4-methoxybenzyl)-allylamine hydrochloride]
final arthritis score and paw swelling [1]: clearly reduced
inhibition at 10 µM (NK3 (h)): 1%
inhibition at 10 µM (β1 (h)): 5%
inhibition at 10 µM (CCR1 (h)): 3%
inhibition at 10 µM (5-HT1B): 16%
IC50 [2]: 92 µM
inhibition at 10 µM (VIP1 (h) (VPAC1)): -13%
Mean Value, percent inhibition of control specific binding: α1 (non-selective) (α1 (non-selective)): 8%
inhibition at 10 µM (CCKB (h) (CCK2)): -5%
Mean Value, percent inhibition of control specific binding: Ca^2+ channel (L, verapamil site) (phenylalkylamines) [3]: 14%
inhibition at 10 µM (M4 (h)): 22%
Mean Value, percent inhibition of control specific binding: SK^+Ca channel (SK^+Ca channel): 4%
inhibition at 10 µM (D4.4 (h)): 2%
Mean Value, percent inhibition of control specific binding: BB (non-selective) (BB (non-selective)): 21%
inhibition at 10 µM [4]: 14%
inhibition at 10 µM (Y2 (h)): 11%
